Results published in patent US12350308B2, “Phosphorylcholine conjugates and uses thereof” (TPCERA LTD., priority 2013, dated 2025).
Where no end group is shown, it is not given here.

Legend:
Format in all cases: in vivo
NZBXW/F1 mice [1] = test: Proteinuria in lupus mice treated with PC-tuftsin (Multistix); settings: 50 μg/0.1 ml s.c. 3 times a week from 14 weeks; vs PBS
Description: The effect of PC-tuftsin (TPC) on proteinuria was determined in a mouse model for lupus, specifically, female NZBXW/F1 mice that develop lupus on a genetic background. Proteinuria levels were measured using Multistix (Bayer Diagnostics). This type of measurement is typically used in the clinic for assessing manifestation of lupus nephritis. Lupus nephritis is an inflammation of the kidney caused by systemic lupus erythematosus (SLE).
The mice, from age of 14 weeks, received subcutaneously PC-tuftsin at the concentration of 50 μg/0.1 ml per mouse (treatment; n=10) or PBS (control; n=10), three times a week. Proteinuria was defined as having a protein level of above 100 mg/dl in the urine.

NZBXW/F1 mice [2] = test: Kidney morphology in lupus mice treated with PC-tuftsin (PAS, immunofluorescence); settings: 50 μg/0.1 ml s.c. 3 times a week
Description: The effect of PC-tuftsin on the morphology of kidneys was determined in a lupus mouse model as in Examples 2. Kidney section obtained from kidneys of mice sacrificed after treatments were paraffin embedded. PAS staining was used to detect pathology of nephritis. Immunofluorescence staining was used for detecting immune complex deposits. The latter was implemented by incubating the paraffin embedded sections with FITC-conjugated-anti-mouse-IgG. Evaluation was performed by a pathologist.
Mice, from age of 14 weeks, received subcutaneously PC-tuftsin at the concentration of 50 μg/0.1 ml per mouse (treatment; n=10) or PBS (control; n=10), three times a week.

[3] = system: splenocytes of lupus mice; test: Cytokine mRNA in splenocytes of lupus mice treated with PC-tuftsin (real time RT-PCR); settings: normalized to β-actin; vs PBS
Description: (§1) Mice, from age of 14 weeks, received subcutaneously PC-tuftsin at the concentration of 50 μg/0.1 ml per mouse (treatment; n=10) or PBS (control; n=10), three times a week. In the cytokines studies, the relative mRNA expression levels of pro-inflammatory cytokine IFNγ and anti-inflammatory cytokine TGFβ were analyzed by real time RT-PCR using LightCycler (Roche). Total RNA was isolated from splenocytes and was reverse-transcribed into cDNA by using Moloney Murine Leukemia Virus Reverse Transcriptase (Promega). The resulting cDNA was subjected to real-time RT-PCR in the presence of specific primers, according to the manufacturer's instructions (Table 2). The relative expression levels of IFNγ and TGFβ were normalized to β-actin levels.

[4] = system: splenocytes of lupus mice; test: Secreted cytokine protein of splenocytes of lupus mice treated with PC-tuftsin (DuoSet); settings: splenocytes incubated 72 hours
Description: as §1
Splenocytes protein level of anti-inflammatory cytokines TGFβ, and IL-10 and pro-inflammatory cytokines IFNγ, and IL-17 were quantified by DuoSet (R&D Systems), according to the manufacturer's instructions. Briefly, spleens from mice treated with PC-tuftsin or PBS were harvested, splenocytes were isolated (5×10^6/ml) and incubated for 72 hours and thereafter assessed for contents of secreted cytokines.

Tregs CD4+CD25+FOXP3+ = test: T regulatory cell profiling by FACS in splenocytes of lupus mice (PC-tuftsin study); settings: PBS 4±0.6 percent
Description: as §1
Finally, a T regulatory cell (Tregs) profiling assay was performed in isolated splenocytes incubated with the following antibodies: anti-CD4^+FITC, anti-CD25^+APC and anti-FOXP3^+PE (eBioscience) and analyzed by FACS. Forward and side scatter gates adjusted to include all cells and to exclude debris (Becton Dickinson). Cells were gated on CD4+ cells, and for intracellular staining, the cells were incubated with a fixation solution, washed and resuspended in permeabilization solution (Serotec). Isotype control was used as reference.

male C57BL/6 mice = test: DSS induced acute colitis in mice; settings: even after day 12
Description: The effect of PC-tuftsin derivative (SEQ ID NO: 25) on colitis development was determined in a mouse model subjected to induction of acute colitis by dextran sulfate sodium (DSS) treatment. Specifically, induction of colitis was carried out in male C57BL/6 mice (“colitis mice”) by supplementing the drinking water (2.5% wt/v) for five days with DSS (mol. wt. 36,000-50,000).
Two groups of mice were fed daily via oral ingestion using a feeding-needle, with PC-tuftsin derivative at a concentration of 500 μg/0.1 ml per mouse (treatment; n=10), or PBS (control; n=10). These compounds were given during 11 days starting two days before DSS administration.
Assessment of colitis development was performed by monitoring body weight, rectal bleeding, stool consistency, and survival every second day. Intestinal bleeding was followed by Hemoccult test and observation of bleeding signs on the anus or gross bleeding. The daily disease activity index (DAI) was calculated by grading on a scale of zero to four the following parameters: change in weight (0, <1%; 1, 1-5%; 2, 5-10%; 3, 10— 15%; and 4, >15%), intestinal bleeding (0, negative; 4, positive), and stool consistency (0, normal; 2, loose stools; 4, diarrhea). The combined scores were then divided by three to obtain the final disease activity index. Ten days following disease induction, mice were sacrificed and the large intestine was collected and evaluated for colon length and microscopic colonic damage. For microscopic scoring, the proximal, medial, and distal portions of the colon and the cecum were fixed in 10% phosphate-buffered formalin. Paraffin-embedded sections were stained with H&E. The degree of histological damage and inflammation was graded in a blinded fashion by an expert pathologist

Substance: PC-tuftsin: PC conjugated to tuftsin (threonine-lysine-proline-arginine, TKPR; SEQ ID NO: 17) using 4-aminophenylphosphorylcholine (also: phosphorylcholine conjugated via 4-aminophenylphosphorylcholine, site not given here)
- proteinuria (protein level above 100 mg/dl) (NZBXW/F1 mice [1]): significant attenuation
- pathology of nephritis (PAS staining) (NZBXW/F1 mice [2]): did not display any pathology of nephritis
- immune complex deposits in the glomeruli (NZBXW/F1 mice [2]; vs PBS): very mild immune complex deposits
- relative mRNA expression of IFNγ in splenocytes [3]: significantly reduced
- relative mRNA expression of TGFβ in splenocytes [3]: significantly enhanced
- increase in protein level of IL-10 ([4]; vs PBS): 4.8
- increase in protein level of TGFβ ([4]; vs PBS): 5.1
- reduction of IFNγ concentration ([4]; vs control): 5.2 fold
- reduction of IL-17 concentration ([4]; vs control): 2.7 fold
- enhancement in Tregs CD4+CD25+FOXP3+ expression level (Tregs CD4+CD25+FOXP3+): 18±2%
- mice still alive (male C57BL/6 mice): 100%
